{"source": "paper PMC11474193", "about": "“A cub and sushi domain-containing protein with esterase-like activity confers insecticide resistance in the Indian malaria vector Anopheles stephensi” (The Journal of Biological Chemistry, 2024)", "key": {"[1]": {"system": "T1, CUB and Sushi Domain-containing Insecticide Resistance (CSDIR) protein (XP_035915664.1)", "T1 construct": "CSDIR^913-1190 (C-terminal CUB and Sushi domains, recombinant in E. coli)", "test": "SPR, steady-state fit; degradation by the protein also shown by UPLC", "type": "binding, Anopheles stephensi"}, "[2]": {"system": "T1, CUB and Sushi Domain-containing Insecticide Resistance (CSDIR) protein (XP_035915664.1)", "test": "SPR, immobilized CSDIR913-1190, steady-state fit", "type": "binding, Anopheles stephensi"}}, "data": [{"smiles": "CC1(C)[C@H](C(=O)O[C@H](C#N)c2cccc(Oc3ccccc3)c2)[C@@H]1C=C(Br)Br", "note": "[deltamethrin]", "values": [{"measurement": "Kd", "setting": "[1]", "value": 46.7, "unit": "µM"}]}, {"smiles": "CCOC(=O)CC(SP(=S)(OC)OC)C(=O)OCC", "note": "(centres unmarked) [malathion]", "values": [{"measurement": "Kd", "setting": "[2]", "value": 6.43, "unit": "µM"}]}]}
